In PMC12578387, “TET3 is a common epigenetic immunomodulator of pathogenic macrophages” (The Journal of Clinical Investigation, 2025):
pEC50: −log10 of the molar value.

Assays:
[1] = molecular target: TET3 (Tet methylcytosine dioxygenase 3) (Homo sapiens, UniProt O43151); assay: AlphaScreen of Bc-dependent TET3-VHL ternary complex formation; supported by co-IP and degradation of TET3 in human MDMs; type: binding
TET1 = TET1 (Homo sapiens, UniProt Q8NFU7); assay: AlphaScreen of Bc-dependent TET1-VHL ternary complex formation (weaker than TET3; no TET1 degradation in cells); type: binding
Sequence of TET1 (Q8NFU7 1418-2136 limits assumed): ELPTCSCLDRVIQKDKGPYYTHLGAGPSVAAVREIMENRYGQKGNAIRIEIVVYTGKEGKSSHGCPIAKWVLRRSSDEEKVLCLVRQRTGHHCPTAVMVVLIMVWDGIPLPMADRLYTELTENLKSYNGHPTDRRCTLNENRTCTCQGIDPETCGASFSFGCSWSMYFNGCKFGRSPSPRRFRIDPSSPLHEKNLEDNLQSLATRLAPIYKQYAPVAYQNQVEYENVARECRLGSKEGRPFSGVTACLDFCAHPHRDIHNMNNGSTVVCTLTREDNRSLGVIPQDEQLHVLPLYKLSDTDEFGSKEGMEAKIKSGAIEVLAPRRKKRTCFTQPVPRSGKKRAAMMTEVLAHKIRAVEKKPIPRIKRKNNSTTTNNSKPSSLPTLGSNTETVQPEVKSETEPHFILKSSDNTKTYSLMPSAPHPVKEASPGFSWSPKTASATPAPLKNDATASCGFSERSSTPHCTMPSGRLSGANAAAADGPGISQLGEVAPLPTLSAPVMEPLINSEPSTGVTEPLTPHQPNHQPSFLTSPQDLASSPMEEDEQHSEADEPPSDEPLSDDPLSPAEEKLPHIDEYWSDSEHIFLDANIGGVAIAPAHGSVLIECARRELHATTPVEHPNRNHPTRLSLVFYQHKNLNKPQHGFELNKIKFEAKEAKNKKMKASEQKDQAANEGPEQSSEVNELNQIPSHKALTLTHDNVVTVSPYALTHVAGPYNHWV
Sequence of TET1 (P40337 whole entry partner): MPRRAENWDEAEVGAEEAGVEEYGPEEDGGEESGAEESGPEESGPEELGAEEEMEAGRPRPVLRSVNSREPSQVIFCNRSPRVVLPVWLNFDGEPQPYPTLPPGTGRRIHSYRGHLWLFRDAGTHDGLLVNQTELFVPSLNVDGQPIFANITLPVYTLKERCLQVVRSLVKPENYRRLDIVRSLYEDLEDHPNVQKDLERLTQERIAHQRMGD

Sequence of TET3 (Tet methylcytosine dioxygenase 3) (O43151 850-1795 limits assumed): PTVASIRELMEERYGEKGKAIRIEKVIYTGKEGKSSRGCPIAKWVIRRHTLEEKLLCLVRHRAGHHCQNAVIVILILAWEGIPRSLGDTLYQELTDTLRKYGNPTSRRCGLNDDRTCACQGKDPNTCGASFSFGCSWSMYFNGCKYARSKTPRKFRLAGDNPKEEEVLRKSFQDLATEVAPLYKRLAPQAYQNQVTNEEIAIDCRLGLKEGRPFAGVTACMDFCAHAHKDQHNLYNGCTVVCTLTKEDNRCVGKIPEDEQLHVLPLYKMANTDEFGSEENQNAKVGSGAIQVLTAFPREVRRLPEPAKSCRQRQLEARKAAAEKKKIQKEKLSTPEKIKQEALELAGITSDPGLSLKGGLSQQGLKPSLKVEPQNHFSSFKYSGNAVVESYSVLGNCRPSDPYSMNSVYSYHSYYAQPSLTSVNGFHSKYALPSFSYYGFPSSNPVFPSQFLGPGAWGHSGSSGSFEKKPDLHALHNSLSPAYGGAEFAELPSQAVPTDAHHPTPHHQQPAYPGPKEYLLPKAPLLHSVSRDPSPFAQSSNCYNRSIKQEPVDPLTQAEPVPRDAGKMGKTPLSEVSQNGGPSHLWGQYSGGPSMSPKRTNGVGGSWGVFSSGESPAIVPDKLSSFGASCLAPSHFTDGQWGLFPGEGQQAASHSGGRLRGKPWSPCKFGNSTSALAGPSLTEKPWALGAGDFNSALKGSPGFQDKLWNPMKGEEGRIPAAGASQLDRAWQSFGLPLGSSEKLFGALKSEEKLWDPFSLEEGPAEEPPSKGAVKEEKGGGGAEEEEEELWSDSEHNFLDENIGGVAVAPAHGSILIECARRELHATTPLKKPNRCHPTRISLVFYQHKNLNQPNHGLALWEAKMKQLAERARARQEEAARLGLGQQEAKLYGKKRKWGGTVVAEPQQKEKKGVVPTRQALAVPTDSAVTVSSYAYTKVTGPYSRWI
Sequence of TET3 (Tet methylcytosine dioxygenase 3) (P40337 whole entry partner): as the sequence (P40337 whole entry partner) above

pEC50 [1]: 4.30
pEC50 (TET1): 2.07
Structure (SMILES): Nc1nc(=O)n(-c2cccc(-c3ccccc3)c2)cc1Cl [Bc, Bobcat339]
